Values joined by “and” are separate entries in the source; they are usually repeats but may differ in a detail not shown here. Identical values can stand only once.

ROCK2, sequence (O75116 whole entry, species assumed): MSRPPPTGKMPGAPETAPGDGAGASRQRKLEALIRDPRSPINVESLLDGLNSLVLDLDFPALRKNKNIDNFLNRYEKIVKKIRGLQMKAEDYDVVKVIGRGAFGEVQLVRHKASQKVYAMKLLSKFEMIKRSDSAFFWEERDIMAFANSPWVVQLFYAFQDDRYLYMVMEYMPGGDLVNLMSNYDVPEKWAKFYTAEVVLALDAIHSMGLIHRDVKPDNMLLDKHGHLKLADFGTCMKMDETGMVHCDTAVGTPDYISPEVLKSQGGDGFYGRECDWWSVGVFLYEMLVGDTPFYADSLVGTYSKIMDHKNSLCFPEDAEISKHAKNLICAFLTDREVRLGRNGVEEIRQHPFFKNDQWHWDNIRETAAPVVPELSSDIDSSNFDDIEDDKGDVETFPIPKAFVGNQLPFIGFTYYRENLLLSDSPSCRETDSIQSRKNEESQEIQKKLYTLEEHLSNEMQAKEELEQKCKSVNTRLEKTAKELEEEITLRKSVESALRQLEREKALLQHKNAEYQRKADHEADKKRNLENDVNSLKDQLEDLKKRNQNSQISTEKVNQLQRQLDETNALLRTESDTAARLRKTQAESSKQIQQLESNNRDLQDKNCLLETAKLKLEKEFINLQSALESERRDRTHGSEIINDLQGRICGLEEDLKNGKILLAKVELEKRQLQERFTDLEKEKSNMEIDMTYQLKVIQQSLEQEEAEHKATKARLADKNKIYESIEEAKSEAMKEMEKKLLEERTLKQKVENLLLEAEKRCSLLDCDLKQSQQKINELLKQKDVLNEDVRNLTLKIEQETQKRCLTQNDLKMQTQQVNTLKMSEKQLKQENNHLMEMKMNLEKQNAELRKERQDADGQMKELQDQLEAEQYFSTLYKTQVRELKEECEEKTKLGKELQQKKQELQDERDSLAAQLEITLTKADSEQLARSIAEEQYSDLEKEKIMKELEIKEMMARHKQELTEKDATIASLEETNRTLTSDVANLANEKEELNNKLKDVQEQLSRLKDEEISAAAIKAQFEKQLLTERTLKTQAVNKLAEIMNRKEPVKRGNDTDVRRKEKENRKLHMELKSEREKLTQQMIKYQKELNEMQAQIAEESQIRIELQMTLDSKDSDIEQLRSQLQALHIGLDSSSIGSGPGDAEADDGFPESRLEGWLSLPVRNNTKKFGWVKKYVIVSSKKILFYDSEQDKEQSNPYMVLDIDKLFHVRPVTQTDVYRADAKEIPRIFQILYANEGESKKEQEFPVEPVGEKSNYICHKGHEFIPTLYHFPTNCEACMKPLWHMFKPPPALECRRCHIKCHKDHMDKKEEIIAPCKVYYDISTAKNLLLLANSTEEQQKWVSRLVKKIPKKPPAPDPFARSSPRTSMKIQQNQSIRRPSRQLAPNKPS

The first assay has as its target ROCK2 (Homo sapiens (Human), UniProt O75116). Kind of assay: ROCK assay (peptide substrate phosphorylation, LABCHIP 3000 Reader). Format: biochemical.
Settings: not given
As for the experimental part: Compounds were dissolved in DMSO so that the final concentration of DMSO was <2%, and the reaction was initiated with Rho kinase variants. After incubation, the reaction was terminated by the addition of EDTA and the phosphorylated and non-phosphorylated peptides separated using a LABCHIP® 3000 Reader (Caliper Life Sciences). […] Compounds were tested in dose-response format, and the inhibition of kinase activity was calculated at each concentration of compound.
For orientation: IC50 means the concentration at which inhibition is half-maximal. Low values mean higher potency, high ones lower potency. Regarding `N#Cc1cc(C(=O)N2C[C@H](O)C[C@@H]2c2ccccc2F)ccc1-c1cn[nH]c1` [Example 96, 5-[(2R,4R)-2-(2-Fluorophenyl)-4-hydroxypyrrolidine-1-carbonyl]-2-(1H-pyrazol-4-yl)benzonitrile], half-maximal inhibition (IC50) was put at 667 nM.

Still in this assay, the particulars now being: 5 μM ATP, 1.5 μM peptide substrate.
With `COc1cc(C(=O)N2CC(O)C[C@@H]2c2cccc(C(=O)NC3(C)CC3)c2)ccc1-c1cn[nH]c1` (stereo partly drawn) [Example 57, 3-[(2R)-4-hydroxy-1-[3-methoxy-4-(1H-pyrazol-4-yl)benzoyl]pyrrolidin-2-yl]-N-(1-methylcyclopropyl) benzamide], the IC50 stood at 43.4 nM.

In turn, `COc1cc(C(=O)N2C[C@@H](O)C[C@@H]2c2ccccc2F)ccc1-c1cn[nH]c1` [Example 93, (3S,5R)-5-(2-Fluorophenyl)-1-[3-methoxy-4-(1H-pyrazol-4-yl)benzoyl] pyrrolidin-3-ol] returned an IC50 of 4.52 nM.

`COc1cc(C(=O)N2CCC(c3ccccc3)C2)ccc1-c1cn[nH]c1` (centres unmarked) [Example 2, 4-[2-methoxy-4-(3-phenyl-pyrrolidine-1-carbonyl)phenyl]-1H-pyrazole] registered an IC50 of 355 nM. This IC50 is about 79-fold higher than that of the molecule before.

Turning to `COc1cc(C(=O)N2CC(O)C[C@@H]2c2cccc(C(=O)NCC(C)(C)O)c2)ccc1-c1cn[nH]c1` (stereo partly drawn) [Example 47, 3-[(2R)-4-hydroxy-1-[3-methoxy-4-(1H-pyrazol-4-yl)benzoyl]pyrrolidin-2-yl]-N-(2-hydroxy-2-methylpropyl)benzamide], the IC50 is 7.29 nM. Against the preceding molecule, the IC50 is about 49-fold lower.

`COc1cc(C(=O)N2CC(O)C[C@@H]2c2cccc(C(=O)NCC(F)F)c2)ccc1-c1cn[nH]c1` (stereo partly drawn) [Example 60, N-(2,2-difluoroethyl)-3-[(2R)-4-hydroxy-1-[3-methoxy-4-(1H-pyrazol-4-yl)benzoyl]pyrrolidin-2-yl]benzamide] showed an IC50 of 4.08 nM.

The molecule `COc1cc(C(=O)N2CC(OC)C[C@@H]2c2cccc(C(=O)N(C)CC3CC3)c2)ccc1-c1cn[nH]c1` (stereo partly drawn) [Example 87, N-(Cyclopropylmethyl)-3-[(2R)-4-methoxy-1-[3-methoxy-4-(1H-pyrazol-4-yl)benzoyl]pyrrolidin-2-yl]-N-methylbenzamide] yielded an IC50 of 461 nM.

In the case of `COc1cc(C(=O)N2CC(O)C[C@@H]2c2cccc(C(=O)NCc3cc(C)no3)c2)ccc1-c1cn[nH]c1` (stereo partly drawn) [Example 58, 3-[(2R)-4-hydroxy-1-[3-methoxy-4-(1H-pyrazol-4-yl)benzoyl]pyrrolidin-2-yl]-N-[(3-methyl-1,2-oxazol-5-yl)methyl] benzamide], inhibition was half-maximal at 5.32 nM (IC50).

In the case of `COc1cc(C(=O)N2CCCC(c3ccccc3)C2)ccc1-c1cn[nH]c1` (centres unmarked) [Example 7, 1-[3-methoxy-4-(1H-pyrazol-4-yl)benzoyl]-3-phenylpiperidine], the IC50 amounted to 1430 nM.

For the molecule `COc1cc(C(=O)N2CC(OC(C)=O)C[C@@H]2c2cccc(S(C)(=O)=O)c2)ccc1-c1cn[nH]c1` (stereo partly drawn) [Example 89, (5R)-5-(3-Methanesulfonylphenyl)-1-[3-methoxy-4-(1H-pyrazol-4-yl)benzoyl]pyrrolidin-3-yl acetate], the IC50 is 784 nM.

For `COc1cc(C(=O)N2CCC[C@@H]2C(=O)OC(C)(C)C)ccc1-c1cn[nH]c1` [Example 24, tert-butyl (2R)-1-[3-methoxy-4-(1H-pyrazol-4-yl)benzoyl] pyrrolidine-2-carboxylate], the midpoint of inhibition, the IC50, lay at 1100 nM.

In turn, `COc1cc(C(=O)N2CCC[C@@H]2c2cccc(S(C)(=O)=O)c2)ccc1-c1cn[nH]c1` [Example 31, 4-{4-[(2R)-2-(3-Methanesulfonylphenyl)pyrrolidine-1-carbonyl]-2-methoxyphenyl}-1H-pyrazole] came in with an IC50 of 11.6 nM.

`COc1cc(C(=O)N2CCCC2c2cccc(OC3CCN(C)CC3)c2)ccc1-c1cn[nH]c1` (centres unmarked) [Example 104, 4-(3-{1-[3-Methoxy-4-(1H-pyrazol-4-yl)benzoyl]pyrrolidin-2-yl}phenoxy)-1-methylpiperidine] registered an IC50 of 1390 nM. Against the preceding molecule, the IC50 is about 120-fold higher.

Take `CCNS(=O)(=O)c1cccc([C@H]2CCCN2C(=O)c2ccc(-c3cn[nH]c3)c(OC)c2)c1` [Example 112, N-Ethyl-3-[(2R)-1-[3-methoxy-4-(1H-pyrazol-4-yl)benzoyl]pyrrolidin-2-yl]benzene-1-sulfonamide]: inhibition was half-maximal at 15.2 nM (IC50).

As for `COc1cc(C(=O)N2CCC[C@@H]2C(=O)Nc2ccccc2)ccc1-c1cn[nH]c1` [Example 110, (2R)-1-[3-Methoxy-4-(1H-pyrazol-4-yl)benzoyl]-N-phenylpyrrolidine-2-carboxamide], the IC50 worked out at 463 nM.

`CCc1cc(C(=O)N2CC(O)C[C@@H]2c2ccccc2F)ccc1-c1cn[nH]c1` (stereo partly drawn) [Example 101, (5R)-1-[3-Ethyl-4-(1H-pyrazol-4-yl)benzoyl]-5-(2-fluorophenyl) pyrrolidin-3-ol] displayed an IC50 of 65.1 nM.

For the molecule `COc1cc(-c2cn[nH]c2)ccc1C(=O)N1C[C@H](O)C[C@@H]1c1ccccc1F` [Example 98, (3R,5R)-5-(2-Fluorophenyl)-1-[2-methoxy-4-(1H-pyrazol-4-yl)benzoyl] pyrrolidin-3-ol], the IC50 turned out to be 723 nM.

In turn, `COc1cc(C(=O)N2CCCC2c2cccc(S(N)(=O)=O)c2)ccc1-c1cn[nH]c1` (centres unmarked) [Example 17, 3-{1-[3-methoxy-4-(1H-pyrazol-4-yl)benzoyl]pyrrolidin-2-yl}benzene-1-sulfonamide] yielded an IC50 of 1280 nM.

Molecule `COc1cc(C(=O)N2CCC[C@@H]2c2cccc(C(=O)NC3CC3)c2)ccc1-c1cn[nH]c1` [Example 42, N-cyclopropyl-3-[(2R)-1-[3-methoxy-4-(1H-pyrazol-4-yl)benzoyl]pyrrolidin-2-yl]benzamide] returned an IC50 of 4.59 nM.

For the molecule `COc1cc(C(=O)N2CC(O)C[C@@H]2c2cccc(S(C)(=O)=O)c2)ccc1-c1cn[nH]c1` (stereo partly drawn) [Example 90, (5R)-5-(3-Methanesulfonylphenyl)-1-[3-methoxy-4-(1H-pyrazol-4-yl)benzoyl]pyrrolidin-3-ol], 86 nM corresponded to half-maximal inhibition (IC50).

Molecule `COc1cc(C(=O)N2CC(O)C[C@@H]2c2cccc(C(=O)N3CC(C#N)C3)c2)ccc1-c1cn[nH]c1` (stereo partly drawn) [Example 61, 1-{3-[(2R)-4-hydroxy-1-[3-methoxy-4-(1H-pyrazol-4-yl)benzoyl]pyrrolidin-2-yl]benzoyl} azetidin-3-carbonitrile] gave an IC50 of 102 nM.

For `COc1cc(C(=O)N2CCCC2c2ccccc2Cl)ccc1-c1cn[nH]c1` (centres unmarked) [Example 28, 4-{4-[2-(2-chlorophenyl)pyrrolidine-1-carbonyl]-2-methoxyphenyl}-1H-pyrazole], the IC50 is 15.8 nM.

On to `COc1cc(C(=O)N2CC(O)C[C@@H]2c2cccc(C(=O)N3CC(F)(F)C3)c2)ccc1-c1cn[nH]c1` (stereo partly drawn) [Example 65, (5R)-5-[3-(3,3-difluoroazetidine-1-carbonyl)phenyl]-1-[3-methoxy-4-(1H-pyrazol-4-yl)benzoyl]pyrrolidin-3-ol], for which the IC50 was determined as 91.4 nM.

`COc1cc(C(=O)N2CC(O)C[C@@H]2c2cccc(C(=O)NCc3ccc(C(F)(F)F)cc3F)c2)ccc1-c1cn[nH]c1` (stereo partly drawn) [Example 63, N-{[2-fluoro-4-(trifluoromethyl)phenyl]methyl}-3-[(2R)-4-hydroxy-1-[3-methoxy-4-(1H-pyrazol-4-yl)benzoyl]pyrrolidin-2-yl]benzamide] gave an IC50 of 5.25 nM.

`COc1cc(C(=O)N2CCCC2Cc2ccccc2)ccc1-c1cn[nH]c1` (centres unmarked) [Example 14, 4-[4(2-benzyl-pyrrolidine-1-carbonyl)-2-methoxy-phenyl]-1H-pyrazole] yielded an IC50 of 183 nM.

With `COc1cc(C(=O)N2CC(O)C[C@@H]2c2cccc(C(=O)NCc3cc(C)on3)c2)ccc1-c1cn[nH]c1` (stereo partly drawn) [Example 59, 3-[(2R)-4-hydroxy-1-[3-methoxy-4-(1H-pyrazol-4-yl)benzoyl]pyrrolidin-2-yl]-N-[(5-methyl-1,2-oxazol-3-yl)methyl] benzamide], half-maximal inhibition (IC50) required 1.8 nM.

Consider `O=C(c1ccc(-c2cn[nH]c2)c(OC(F)F)c1)N1C[C@@H](O)C[C@@H]1c1ccccc1F` [Example 95, (3S,5R)-1-[3-(Difluoromethoxy)-4-(1H-pyrazol-4-yl)benzoyl]-5-(2-fluorophenyl)pyrrolidin-3-ol], for which the IC50 is 44.1 nM and 28.4 nM.

The molecule `COc1cc(C(=O)N2CCc3ccccc32)ccc1-c1cn[nH]c1` [Example 13, 1-[3-methoxy-4-(1H-pyrazol-4-yl)benzoyl]-2,3-dihydro-1H-indole] yielded an IC50 of 800 nM.

`COc1cc(C(=O)N2CCCC2c2ccc(C(F)(F)F)cc2)ccc1-c1cn[nH]c1` (centres unmarked) [Example 22, 4-(2-methoxy-4-{2-[4-(trifluoromethyl)phenyl]pyrrolidine-1-carbonyl}phenyl)-1H-pyrazole] registered an IC50 of 125 nM.

Molecule `COc1cc(C(=O)N2CCC[C@@H]2c2cccc(C(=O)NC3CCS(=O)(=O)C3)c2)ccc1-c1cn[nH]c1` (stereo partly drawn) [Example 41, N-(1,1-dioxo-1λ^6-thiolan-3-yl)-3-[(2R)-1-[3-methoxy-4-(1H-pyrazol-4-yl)benzoyl]pyrrolidin-2-yl]benzamide] registered an IC50 of 5.53 nM.

With `COc1cc(C(=O)N2CCCC2c2ccc(Cl)cc2)ccc1-c1cn[nH]c1` (centres unmarked) [Example 10, 4-{4-[2-(4-chlorophenyl)pyrrolidine-1-carbonyl]-2-methoxyphenyl}-1H-pyrazole], it took 114 nM to reach half-maximal inhibition (IC50). This IC50 is about 21-fold higher than that of the molecule before.

On to `COc1cc(C(=O)N[C@@H]2CNC[C@H]2c2ccccc2)ccc1-c1cn[nH]c1` (racemic) [Example 70, trans-(±)-3-Methoxy-N-(4-phenylpyrrolidin-3-yl)-4-(1H-pyrazol-4-yl)benzamide], for which the IC50 was determined as 1.28 nM.

`COc1cc(-c2cn[nH]c2)ccc1C(=O)N1CCCC1c1cccc(-c2cn[nH]c2)c1` (centres unmarked) [Example 72, 4-(3-methoxy-4-{2-[3-(1H-pyrazol-4-yl)phenyl]pyrrolidine-1-carbonyl}phenyl)-1H-pyrazole] gave an IC50 of 1600 nM.

`COc1cc(C(=O)N2CCCC2c2ccccc2)ccc1-c1cn[nH]c1` (centres unmarked) [Example 26, 4-[2-methoxy-4-(2-phenyl-pyrrolidine-1-carbonyl)phenyl]-1H-pyrazole]: the IC50 came to 50.5 nM.

`COc1cc(C(=O)N2CC(O)C[C@@H]2c2cccc(C(=O)N3CC(OC)C3)c2)ccc1-c1cn[nH]c1` (stereo partly drawn) [Example 62, (5R)-1-[3-methoxy-4-(1H-pyrazol-4-yl)benzoyl]-5-[3-(3-methoxyazetidine-1-carbonly)phenyl] pyrrolidin-3-ol]: the IC50 amounted to 316 nM.

(Values after patent publication US10112939B2, “Tied-back benzamide derivatives as potent rock inhibitors” (Bristol-Myers Squibb Company, priority 2014, dated 2018).)
